The values that follow come from ChEMBL document CHEMBL1147261, “Xanthanolides, germacranolides, and other constituents from Carpesium longifolium” (J Nat Prod, 2003).

One test deals with SMMC-7721. The experiment in a line: Cytotoxicity against human SMMC7721 cells by MTT assay. In kind it is functional, cell-based. (In general: Formazan colour is commonly taken as a measure of viable cells.)
Test [1] can be described thus: Cytotoxicity against human HO8910 cells by MTT assay. The test is classed as functional, cell-based. The conditions noted are these: HO-8910.

≈ marks a conversion by molar mass, not a printed value. A value given as a limit tells only on which side of the number the result lay.

On to `C=C1C(=O)O[C@@H]2C3O[C@]3(C)CC/C=C(\C)CC[C@@H]12` (stereo partly drawn), for which the IC50 came out at 4.2 µg/mL (≈ 16.9 µM) in the test on SMMC-7721 and 1.37 µg/mL (≈ 5.52 µM) in test [1].
On the same counts, the results for `COc1ccc(C2CC(=O)c3c(O)cc(OC)cc3O2)cc1` (stereo not drawn) are greater than 200 µg/mL and greater than 200 µg/mL.
On the same counts, the results for `C/C1=C\CC[C@@]2(C)O[C@@H]2[C@H]2OC(=O)[C@@H](C)[C@@H]2CC1` [11BETA,13-DIHYDRO-PARTHENOLIDE] are greater than 200 µg/mL and 158 µg/mL (≈ 631 µM).
As for `CC[C@]1(O)C[C@H]2CN(CCc3c([nH]c4ccccc34)[C@@](C(=O)OC)(c3cc4c(cc3OC)N(C=O)[C@H]3[C@@](O)(C(=O)OC)[C@H](OC(C)=O)[C@]5(CC)C=CCN6CC[C@]43[C@@H]65)C2)C1` [VINCRISTINE], the values for the IC50 (in the test on SMMC-7721; in test [1]) were 20.7 µg/mL (≈ 25.1 µM) and 1.37 µg/mL (≈ 1.66 µM), respectively.

What is called IC50 is the concentration that inhibits the measured activity by half.
